Measurements published in paper PMC6318274, “Lattice engineering enables definition of molecular features allowing for potent small-molecule inhibition of HIV-1 entry” (Nature Communications, 2019).
“Also recorded” adds a separate entry of the source. Like-named read-outs stand apart in the source and are kept apart here.

Tests used:
[1] = system: TZM-bl cells; experiment: Cytotoxicity in the neutralization assay (TZM-bl cells + drugs); settings: highest concentration (20 μM)
[2] = system: HIV-1 strain NL4-3; experiment: Entry inhibition of laboratory-adapted HIV-1 strain NL4-3; type: cell-based
[3] = system: HIV-1 Env-pseudoviruses (30-strain panel); experiment: Neutralization assay, cross-clade 30-strain panel (Env-pseudoviruses, TZM-bl target cells); type: cell-based; settings: for IC50: Human immunodeficiency virus 1, TZM-bl; for number of viruses neutralized: of the 30 viruses
Experimental: Neutralization was measured using single-round-of-infection HIV-1 Env-pseudoviruses and TZM-bl target cells (ARP Cat No. #8129)[44],[45]. Compounds were prepared at 400 μM with 4% DMSO (dimethyl sulfoxide) in PBS (phosphate-buffered saline) and diluted 20 times as the starting concentration for serial dilution in the neutralization assays. […] After incubation at 37 °C for 2 days, infection of target cells was measured by luciferase activity. Neutralization curves were fit by nonlinear regression using a five-parameter hill slope equation[45].

[4] = system: TZM-bl cells; set-up: method as in literature; settings: not measured here; ref literature; cited from earlier work
[5] = 242-14 (Clade AG), read-out: IC50
[6] = 247-23 (Clade D), read-out: IC50
[7] = 0330.v4.c3 (Clade A), read-out: IC50
[8] = 7165.18 (Clade B), read-out: IC50
[9] = BJOX028000.10.3 (Clade AE), read-out: IC50
[10] = BL01.DG (Clade B), read-out: IC50
[11] = C4118.09 (Clade AE), read-out: IC50
[12] = CAP210.E8 (Clade C), read-out: IC50
[13] = CH119.10 (Clade BC), read-out: IC50
[14] = CNE10 (Clade B), read-out: IC50
[15] = CNE20 (Clade BC), read-out: IC50
[16] = CNE56 (Clade AE), read-out: IC50
[17] = DJ263.8 (Clade AG), read-out: IC50
[18] = DU156.12 (Clade C), read-out: IC50
[19] = Geomean, 30-strain panel, read-out: Geometric mean IC50
[20] = KER2008.12 (Clade A), read-out: IC50
[21] = MB201.A1 (Clade A), read-out: IC50
[22] = NKU3006.ec1 (Clade D), read-out: IC50
[23] = P0402.c2.11 (Clade G), read-out: IC50
[24] = PVO.04 (Clade B), read-out: IC50
[25] = R3265.c6 (Clade AE), read-out: IC50
[26] = REJO.67 (Clade B), read-out: IC50
[27] = T253-11 (Clade AG), read-out: IC50
[28] = T280-5 (Clade AG), read-out: IC50
[29] = ZM106.9 (Clade C), read-out: IC50

| SMILES | IC50 [3, 5] | IC50 [3, 6] | IC50 [3, 7] | IC50 ([3]; 426c (Clade C), read-out: IC50) | IC50 [3, 8] | IC50 ([3]; B41 (Clade B), read-out: IC50) | IC50 [3, 9] | IC50 [3, 10] | IC50 [3, 11] | IC50 [3, 12] | IC50 [3, 13] | IC50 [3, 14] | IC50 [3, 15] | IC50 [3, 16] | IC50 [3, 17] | IC50 [3, 18] | IC50 [3, 19] | IC50 [3, 20] | IC50 [3, 21] | IC50 [3, 22] | also measured |
| --- | --- | --- | --- | --- | --- | --- | --- | --- | --- | --- | --- | --- | --- | --- | --- | --- | --- | --- | --- | --- | --- |
| COc1cnc(-c2csc(CN(C)CCCN(C)C)n2)c2[nH]cc(C(=O)C(=O)N3CCC(=C(C#N)c4ccccc4)CC3)c12 [BMS-814508] | 0.015 µM | 0.016 µM | 0.096 µM | 0.036 µM | 0.491 µM | 0.001 µM | > 4 µM | 2.81 µM | 2 µM | 0.4 µM | 0.004 µM | 0.004 µM | 0.143 µM | > 4 µM | < 0.0003 µM | 0.02 µM | > 0.051 µM | 0.165 µM | 0.192 µM | 0.001 µM | Cytotoxicity [1]: showed cytotoxicity; also recorded: Cytotoxicity was observed; EC50 ([2]; Human immunodeficiency virus 1, NL43, NL4-3): 0.000495 ± 6.9e-05 µM; fold more potent than BMS-626529 ([2]; NL4-3 EC50): 4 fold; IC50 [3, 23]: 0.012 µM; IC50 [3, 24]: 0.002 µM; IC50 [3, 25]: 1.06 µM; IC50 [3, 26]: 2.73 µM; IC50 [3, 27]: < 0.0003 µM; IC50 [3, 28]: 0.0008 µM; IC50 [3, 29]: 0.031 µM; IC50 ([3]; read-out: IC50): 0.008 µM; number of viruses neutralized [3]: 28 |
| O=C(C(=O)N1CCN(C(=O)c2ccccc2)CC1)c1c[nH]c2c(F)ccc(Br)c12 [BMS-386150] | 7.02 µM | > 20 µM | > 20 µM | 6.62 µM | > 20 µM | 0.117 µM | > 20 µM | > 20 µM | > 20 µM | > 20 µM | 13.7 µM | 0.509 µM | > 20 µM | > 20 µM | > 20 µM | 1.35 µM | > 6.72 µM | > 20 µM | > 20 µM | 0.256 µM | fold lower neutralization potency than BMS-378806 ([3]; 30-strain panel): ~ 7 fold; IC50 [3, 23]: > 20 µM; IC50 [3, 24]: 0.664 µM; IC50 [3, 25]: > 20 µM; IC50 [3, 26]: > 20 µM; IC50 [3, 27]: 0.541 µM; IC50 [3, 28]: 2.02 µM; IC50 [3, 29]: 10.8 µM; IC50 ([3]; read-out: IC50): 4.67 µM |
| O=C(c1ccsc1)N1CCN(C(=O)C2(c3cccc(Cl)c3)CC2)CC1 [Compound 484, reference compound] | > 20 µM | > 20 µM | > 20 µM | 13.4 µM | > 20 µM | 1.73 µM | > 20 µM | > 20 µM | > 20 µM | > 20 µM | > 20 µM | 1.94 µM | > 20 µM | > 20 µM | 2.78 µM | 7.69 µM | > 12.3 µM | > 20 µM | > 20 µM | 1.65 µM | IC50 [3, 23]: > 20 µM; IC50 [3, 24]: 7.87 µM; IC50 [3, 25]: > 20 µM; IC50 [3, 26]: > 20 µM; IC50 [3, 27]: 3.35 µM; IC50 [3, 28]: 11.9 µM; IC50 [3, 29]: > 20 µM; IC50 ([3]; […], read-out: IC50): 13.6 µM; IC50 ([3]; read-out: IC50): > 20 µM; number of viruses neutralized [3]: 11 |
| COc1ccnc2[nH]cc(C(=O)C(=O)N3CCN(C(=O)c4ccccc4)C[C@H]3C)c12 [BMS-378806, 4-benzoyl-1-[(4-methoxy-1H-pyrrolo[2,3-b]pyridin-3-yl)oxoacetyl]-2-(R)-methylpiperazine, reference compound] | – | – | – | – | – | – | – | – | – | – | – | – | – | – | – | – | – | – | – | – | Cytotoxicity [4]: lack of cytotoxicity; IC50 ([3]; read-out: Geometric mean IC50): > 0.912 µM |
